# Tests used:
# Meg-01 cells [1] = experiment: Platelet production from Meg-01 cells (flow cytometry); format: cell-based, human; details: for platelet production / effect of antioxidant pretreatment on 15d-PGJ2-induced platelet production: Meg-01 cells; for platelet production: 10 μM, 24 h; for effect of antioxidant pretreatment on 15d-PGJ2-induced platelet production: 5 mM GSH-EE or 1 mM NAC for 2 h, then 15d-PGJ2 24 h
# Experimental: Meg-01 and M07e cells were purchased from the American Type Culture Collection (Rockville, Md.) and Dami cells were a generous gift from Dr. Patricia J. Simpson-Haidaris (University of Rochester). All cells were cultured in RPMI-1640 tissue culture medium (Invitrogen) supplemented with 5% fetal bovine serum (FBS; Invitrogen), 10 mM HEPES (N-2-hydroxyethylpiperazine-N′-2-ethanesulfonic acid; Sigma), 2 mM L-glutamine (Invitrogen), 4.5 g/L glucose (Invitrogen), and 50 μg/mL gentamicin (Invitrogen). M07e cells were also supplemented with 100 ng/mL of granulocyte monocyte-colony stimulating factor (GM-CSF, R&D Systems). All treatments were performed in normal growth media. Dimethyl sulfoxide (DMSO) was used as a vehicle (control) in the experiments described below.
# Platelets were isolated from megakaryocytes by centrifugation at 150 xg for 10 min. Supernatants underwent sequential centrifugation (500 xg for 10 min and 1000×g for 10 min). The remaining platelet pellet was fixed then permeabilized with a CD61 or CD41 antibody. 7-AAD (BD Pharmingen) was added for 10 min before analyzing the cells by flow cytometry. Platelets were identified using three well-described parameters (Patel et al., “The Biogenesis of Platelets from Megakaryocyte Proplatelets,” J Clin Invest 115:3348-3354 (2005); Breton-Gorius et al., “Expression of Platelet Proteins During the In Vitro and In Vivo Differentiation of Megakaryocytes and Morphological Aspects of Their Maturation,” Semin Hematol 23:43-67 (1986); Ogura et al., “Establishment of a Novel Human Megakaryoblastic Leukemia Cell Line, MEG-01, With Positive Philadelphia Chromosome,” Blood 66:1384-1392 (1985) and Franks et al., “A Fluorescence Microscopy Method for Quantifying Levels of Prostaglandin Endoperoxide H Synthase-1 and CD-41 in MEG-01 Cells,” Biol Proced Online 3:54-63 (2001), each of which is hereby incorporated by reference in its entirety), size (using normal human platelets as a control), presence of CD61 or CD41 and lack of DNA as determined by the absence of 7-AAD staining Ten thousand platelet events were collected and platelets were quantified by rate (platelet events/second) (Chung et al., “Platelet Activation in Acute, Decompensated Congestive Heart Failure,” Thromb Res 120:709-713 (2007), which is hereby incorporated by reference in its entirety.
# A 19 by target sequence was selected to knock down PPARγ. PPARγ was cloned downstream of the RNA polymerase III U6 promoter and subcloned into a FG12 lentiviral vector which expresses green fluorescent protein (GFP) under the Ubiquitin C promoter. HEK 293 cells expressing this siRNA PPARγ had reduced PPARγ protein levels. To make the lentivirus, HEK 293 cells were co-transfected with 3 plasmids: the envelope vector (CMV-VSVG), the transfer vector (FG12-shRNAPPAR), and the packaging construct (pCMVΔ89.2 (gag/pol proteins)). Viral supernatants were collected every 8 h for 2 days and concentrated by ultracentrifugation at 50,000×g for 2 h at 4° C. using a Beckman SW 28 rotor. Viral titers were determined by infection of HeLa cells with serial dilutions of the viral stocks. Meg-01 cells were infected at a multiplicity of infection (MOI) of 20. After 48 h, approximately 56% of the PPARγ siRNA cells were transduced as determined by flow cytometry. The GFP positive (+) cells were then sorted by FACS and grown in RPMI with 5% FBS.
# Meg-01 cells [2] = experiment: Reactive oxygen species production in Meg-01 cells (carboxy-H2DCFDA, MitoSOX Red); format: cell-based, human; details: for percentage of Meg-01 cells that produce mitochondrial superoxide (MitoSOX Red): 10 μM; for effect of antioxidant pretreatment on 15d-PGJ2 ROS induction: Meg-01 cells, pretreatment before 15d-PGJ2
# Experimental: Ten μM carboxy-H2DCFDA was added to cells for 20 min at RT. The cells were washed and immediately analyzed by flow cytometry. Five μM of MitoSOX Red dye in HBSS containing Mg^2+ and Ca^2+ was added to the cells for 15 min at 37° C. The cells were washed in HBSS and analyzed by flow cytometry.
# [3] = tested on: primary human megakaryocytes; experiment: Platelet production from human cord blood CD34+-derived megakaryocytes; format: cell-based; details: primary human megakaryocytes; 5 mM GSH-EE or 1 mM NAC for 2 h, then 15d-PGJ2 24 h
# Experimental: Human CD34+ cord blood cells were obtained from the National Disease Research Interchange (NDRI, Philadelphia, Pa.). Cells were plated at 2.5×10^5 cells per well in a 12-well plate and cultured in serum-free medium as previously described (Zeuner et al., “Chemotherapy-induced Thrombocytopenia Derives from the Selective Death of Megakaryocyte Progenitors and Can Be Rescued by Stem Cell Factor,” Cancer Res 67:4767-4773 (2007), which is hereby incorporated by reference in its entirety) and supplemented with 100 ng/mL of rhTPO. After 14 days in culture, megakaryocytes were identified by staining with a CD61-FITC antibody and analyzed on a BD Biosciences FACSCalibur flow cytometer. Data were analyzed using FlowJo software (Treestar, Ashland, Oreg.). Cell images were captured using an inverted microscope (Olympus IX81). Platelets were isolated from megakaryocytes by centrifugation at 150 xg for 10 min. Supernatants underwent sequential centrifugation (500 xg for 10 min and 1000×g for 10 min). The remaining platelet pellet was fixed then permeabilized with a CD61 or CD41 antibody. 7-AAD (BD Pharmingen) was added for 10 min before analyzing the cells by flow cytometry. Platelets were identified using three well-described parameters (Patel et al., “The Biogenesis of Platelets from Megakaryocyte Proplatelets,” J Clin Invest 115:3348-3354 (2005); Breton-Gorius et al., “Expression of Platelet Proteins During the In Vitro and In Vivo Differentiation of Megakaryocytes and Morphological Aspects of Their Maturation,” Semin Hematol 23:43-67 (1986); Ogura et al., “Establishment of a Novel Human Megakaryoblastic Leukemia Cell Line, MEG-01, With Positive Philadelphia Chromosome,” Blood 66:1384-1392 (1985) and Franks et al., “A Fluorescence Microscopy Method for Quantifying Levels of Prostaglandin Endoperoxide H Synthase-1 and CD-41 in MEG-01 Cells,” Biol Proced Online 3:54-63 (2001), each of which is hereby incorporated by reference in its entirety), size (using normal human platelets as a control), presence of CD61 or CD41 and lack of DNA as determined by the absence of 7-AAD staining Ten thousand platelet events were collected and platelets were quantified by rate (platelet events/second) (Chung et al., “Platelet Activation in Acute, Decompensated Congestive Heart Failure,” Thromb Res 120:709-713 (2007), which is hereby incorporated by reference in its entirety.
# [4] = tested on: primary human megakaryocytes; experiment: Reactive oxygen species production in primary human megakaryocytes; format: cell-based; details: pretreatment before 15d-PGJ2
# Experimental: Human CD34+ cord blood cells were obtained from the National Disease Research Interchange (NDRI, Philadelphia, Pa.). Cells were plated at 2.5×10^5 cells per well in a 12-well plate and cultured in serum-free medium as previously described (Zeuner et al., “Chemotherapy-induced Thrombocytopenia Derives from the Selective Death of Megakaryocyte Progenitors and Can Be Rescued by Stem Cell Factor,” Cancer Res 67:4767-4773 (2007), which is hereby incorporated by reference in its entirety) and supplemented with 100 ng/mL of rhTPO. After 14 days in culture, megakaryocytes were identified by staining with a CD61-FITC antibody and analyzed on a BD Biosciences FACSCalibur flow cytometer. Data were analyzed using FlowJo software (Treestar, Ashland, Oreg.). Cell images were captured using an inverted microscope (Olympus IX81). Ten μM carboxy-H2DCFDA was added to cells for 20 min at RT. The cells were washed and immediately analyzed by flow cytometry. Five μM of MitoSOX Red dye in HBSS containing Mg^2+ and Ca^2+ was added to the cells for 15 min at 37° C. The cells were washed in HBSS and analyzed by flow cytometry.
compound,measurement,setting,value
CCCCC[C@H](O)/C=C/[C@H]1[C@H](O)CC(=O)[C@@H]1C/C=C\CCCC(=O)O [PGE2],platelet production,Meg-01 cells [1],failed to enhance platelet production
O=C(Nc1ccccc1)c1cc([N+](=O)[O-])ccc1Cl [GW9662],blocking of 15d-PGJ2-enhanced platelet production,"Meg-01 cells [1]; Meg-01 cells pre-treated 2 h with 100 nM GW9662, then 15d-PGJ2 24 h",not blocked
CCCCC[C@H](O)/C=C/[C@@H]1[C@H]2C/C(=C/CCCC(=O)O)O[C@H]2C[C@H]1O [PGI2],platelet production,Meg-01 cells [1],failed to enhance platelet production
CCCCC[C@H](O)/C=C/[C@H]1C(=O)C=C[C@@H]1C/C=C\CCCC(=O)O [PGJ2],platelet production,Meg-01 cells [1],enhanced Meg-01 platelet production
same,percentage of Meg-01 cells that produce mitochondrial superoxide (MitoSOX Red),Meg-01 cells [2]; 1 h,33%
same,percentage of Meg-01 cells that produce mitochondrial superoxide (MitoSOX Red),Meg-01 cells [2]; 6 h,25%
same,percentage of Meg-01 cells that express ROS (carboxy-H2DCFDA),Meg-01 cells [2]; 1 h,65%
same,percentage of Meg-01 cells that express ROS (carboxy-H2DCFDA),Meg-01 cells [2]; 6 h,76%
CCCCC[C@H](O)/C=C/[C@@H]1[C@@H](C/C=C\CCCC(=O)O)[C@@H](O)C[C@H]1O [PGF2α],platelet production,Meg-01 cells [1],failed to enhance platelet production
"CCOC(=O)CNC(=O)[C@H](CS)NC(=O)CC[C@H](N)C(=O)O [GSH-EE, glutathione reduced ethyl ester, reference compound]",effect of antioxidant pretreatment on 15d-PGJ2-induced platelet production,Meg-01 cells [1],attenuate 15d-PGJ2-induced platelet production
same,effect of antioxidant pretreatment on 15d-PGJ2 ROS induction,Meg-01 cells [2],attenuated both ROS induction and platelet formation
same,effect of antioxidant pretreatment on 15d-PGJ2-induced platelet production,[3],attenuate 15d-PGJ2-induced platelet production
same,effect of antioxidant pretreatment on 15d-PGJ2 ROS induction,[4],attenuated both ROS induction and platelet formation
"CC(=O)N[C@@H](CS)C(=O)O [NAC, N-acetylcysteine, reference compound]",effect of antioxidant pretreatment on 15d-PGJ2-induced platelet production,Meg-01 cells [1],attenuate 15d-PGJ2-induced platelet production
same,effect of antioxidant pretreatment on 15d-PGJ2 ROS induction,Meg-01 cells [2],attenuated both ROS induction and platelet formation
same,effect of antioxidant pretreatment on 15d-PGJ2-induced platelet production,[3],attenuate 15d-PGJ2-induced platelet production
same,effect of antioxidant pretreatment on 15d-PGJ2 ROS induction,[4],attenuated both ROS induction and platelet formation

# — patent US9012439B2, “Use of electrophilic compounds for inducing platelet production or maintaining platelet function” (University of Rochester, priority 2007, dated 2015)
